Blank lines part the entries; values can stand above or below the compound they belong to.
Assays:
[1] = molecular target: T1, B1R receptor of the rat (Rattus norvegicus, UniProt P97583); assay: Functional study on the bradykinin receptor 1 (B1R), FLIPR Ca2+ assay, rB1R cells; type: cell-based; conditions: agonist Des-Arg9-bradykinin 100 nM, % inhibition compared with the maximum achievable inhibition; for inhibition at 10 µM: CHO-K1, test substance 10 μM, read-out: B1R Antagonism, rat [10 μM] % Inhibition; for B1R Antagonism, rat [10 μM] % Inhibition: test substance 10 μM, rB1R CHO K1 cells
T1 construct: host or cells: CHO K1 cells (Chinese hamster ovary), stably transfected
T1 sequence (P97583 1-337): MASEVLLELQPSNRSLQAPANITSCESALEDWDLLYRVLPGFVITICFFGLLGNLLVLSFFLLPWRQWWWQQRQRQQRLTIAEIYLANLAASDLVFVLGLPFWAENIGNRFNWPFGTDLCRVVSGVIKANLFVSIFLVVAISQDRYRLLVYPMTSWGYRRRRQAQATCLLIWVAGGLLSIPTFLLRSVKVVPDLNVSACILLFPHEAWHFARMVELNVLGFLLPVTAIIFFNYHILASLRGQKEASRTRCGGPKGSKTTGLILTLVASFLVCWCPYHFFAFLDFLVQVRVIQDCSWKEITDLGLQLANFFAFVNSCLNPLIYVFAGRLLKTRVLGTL
Method in brief: (§1)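 FLIPR Ca2+ read-out (Fluo-4, peak fluorescence) in stably transfected CHO K1 cells. Compounds at 10 μM, then 10 min later agonist challenge: human B1R with Lys-Des-Arg9-bradykinin 0.5 nM, rat B1R with Des-Arg9-bradykinin 100 nM; reported as % activation or % of maximal inhibition.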

[2] = molecular target: T2, human B1R receptor (Homo sapiens, UniProt P46663); assay: Functional study on the bradykinin receptor 1 (B1R), FLIPR Ca2+ assay, hB1R cells; type: cell-based; conditions: agonist Lys-Des-Arg9-bradykinin 0.5 nM, % inhibition compared with the maximum achievable inhibition; for inhibition at 10 µM: CHO-K1, test substance 10 μM, read-out: B1R Antagonism, human [10 μM] % Inhibition; for B1R Antagonism, human [10 μM] % Inhibition: test substance 10 μM, hB1R CHO K1 cells
T2 construct: host or cells: CHO K1 cells (Chinese hamster ovary), stably transfected
T2 sequence (P46663 1-353): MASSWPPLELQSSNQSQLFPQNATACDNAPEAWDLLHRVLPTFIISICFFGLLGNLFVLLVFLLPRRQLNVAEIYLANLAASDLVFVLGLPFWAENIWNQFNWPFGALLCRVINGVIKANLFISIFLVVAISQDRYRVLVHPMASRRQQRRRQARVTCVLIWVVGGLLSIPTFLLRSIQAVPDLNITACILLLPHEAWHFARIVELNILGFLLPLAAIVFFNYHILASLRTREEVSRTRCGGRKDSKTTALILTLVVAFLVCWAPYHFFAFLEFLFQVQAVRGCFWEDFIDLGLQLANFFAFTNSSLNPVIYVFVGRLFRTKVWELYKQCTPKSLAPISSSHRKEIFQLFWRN
Method in brief: as §1

SMILES: CN(C)c1ccc(CNC(=O)COCC2CCCCN2S(=O)(=O)c2c(Cl)cc(Cl)cc2Cl)cc1 (stereo not drawn) [Example 578, N-(4-(dimethylamino)benzyl)-2-((1-(2,4,6-trichlorophenylsulfonyl)piperidin-2-yl)methoxy)acetamide]
- inhibition at 10 µM [1]: 87.1%
- inhibition at 10 µM [2]: 8.96%

SMILES: COc1cc(C)c(S(=O)(=O)N2CCCCC2COCC(=O)N(CCCN(C)C)CCCN(C)C)c(C)c1 (stereo not drawn) [Example 561, N,N-bis(3-(dimethylamino)propyl)-2-((1-(4-methoxy-2,6-dimethylphenylsulfonyl)piperidin-2-yl)methoxy)acetamide]
- inhibition at 10 µM [1]: 101%
- inhibition at 10 µM [2]: 102%

SMILES: Cc1nn(C)c(Cl)c1S(=O)(=O)N1CCCCC1COCC(=O)N1CCN(C2CCN(C)CC2)CC1 (stereo not drawn) [Example 128, 2-((1-(5-chloro-1,3-dimethyl-1H-pyrazol-4-ylsulfonyl)piperidin-2-yl)methoxy)-1-(4-(1-methylpiperidin-4-yl)piperazin-1-yl)ethanone]
- inhibition at 10 µM [1]: 94.5%
- inhibition at 10 µM [2]: 90.8%

SMILES: O=C(COCC1CCCN1S(=O)(=O)c1c(Cl)cc(Cl)cc1Cl)N1CCC(N2CCOCC2)CC1 (stereo not drawn) [Example 297, 1-(4-morpholinopiperidin-1-yl)-2-((1-(2,4,6-trichlorophenylsulfonyl)pyrrolidin-2-yl)methoxy)ethanone]
- inhibition at 10 µM [1]: 103%
- inhibition at 10 µM [2]: 106%

SMILES: O=C(COCC1CCCCN1S(=O)(=O)c1c(Cl)cccc1Cl)N1CCC(N2CCCCC2)CC1 (stereo not drawn) [Example 336, 1-(1,4′-bipiperidin-1′-yl)-2-((1-(2,6-dichlorophenylsulfonyl)piperidin-2-yl)methoxy)ethanone]
- inhibition at 10 µM [1]: 105%
- inhibition at 10 µM [2]: 103%

SMILES: COc1cc(C)c(S(=O)(=O)N2CCCCC2CCOCC(=O)N2CCN(C3CCN(C)CC3)CC2)c(C)c1 (stereo not drawn) [Example 164, 2-(2-(1-(4-methoxy-2,6-dimethylphenylsulfonyl)piperidin-2-yl)ethoxy)-1-(4-(1-methylpiperidin-4-yl)piperazin-1-yl)ethanone]
- inhibition at 10 µM [1]: 101%
- inhibition at 10 µM [2]: 99.6%

SMILES: CN1CCN(C2CCN(C(=O)COCC3CCCCN3S(=O)(=O)c3c(Cl)cccc3Cl)CC2)CC1 (stereo not drawn) [Example 278, 2-((1-(2,6-dichlorophenylsulfonyl)piperidin-2-yl)methoxy)-1-(4-(4-methylpiperazin-1-yl)piperidin-1-yl)ethanone]
- inhibition at 10 µM [1]: 96.9%
- inhibition at 10 µM [2]: 104%

SMILES: CN(C)Cc1ccc(CNC(=O)COCC2CCCN2S(=O)(=O)c2c(Cl)cc(Cl)cc2Cl)cc1 (stereo not drawn) [Example 73, N-(4-dimethylaminomethyl-benzyl)-2-[1-(2,4,6-trichloro-phenylsulfonyl)-pyrrolidin-2-ylmethoxy]-acetamide]
- inhibition at 10 µM [1]: 106%
- inhibition at 10 µM [2]: 51%

SMILES: COc1cc(C)c(S(=O)(=O)N2CCCC2COCC(=O)N2CCN(c3ncccn3)CC2)c(C)c1 (stereo not drawn) [Example 309, 2-((1-(4-methoxy-2,6-dimethylphenylsulfonyl)pyrrolidin-2-yl)methoxy)-1-(4-(pyrimidin-2-yl)piperazin-1-yl)ethanone]
- inhibition at 10 µM [1]: 101%
- inhibition at 10 µM [2]: 52%

SMILES: O=C(COCC1CCCCN1S(=O)(=O)c1c(Cl)cc(Cl)cc1Cl)N1CCC(c2ccncc2)C1 (stereo not drawn) [Example 390, 1-(3-(pyridin-4-yl)pyrrolidin-1-yl)-2-((1-(2,4,6-trichlorophenylsulfonyl)piperidin-2-yl)methoxy)ethanone]
- inhibition at 10 µM [1]: 99.8%
- inhibition at 10 µM [2]: 103%

SMILES: COc1cc(C)c(S(=O)(=O)N2CCCCC2COCC(=O)N(Cc2ccccc2)c2cc(C)ccn2)c(C)c1 (stereo not drawn) [Example 507, N-benzyl-2-((1-(4-methoxy-2,6-dimethylphenylsulfonyl)piperidin-2-yl)methoxy)-N-(4-methylpyridin-2-yl)acetamide]
- inhibition at 10 µM [1]: 102%
- inhibition at 10 µM [2]: -10.1%

Further lines, results first:

- inhibition at 10 µM [1]: 85.3%
- inhibition at 10 µM [2]: 92.3%
SMILES: O=C(COCC1CCCCN1S(=O)(=O)c1cccc2ccccc12)N1CCC(N2CCCC2)CC1 (stereo not drawn) [Example 23, 2-((1-(naphthalen-1-ylsulfonyl)piperidin-2-yl)methoxy)-1-(4-(pyrrolidin-1-yl)piperidin-1-yl)ethanone]

- B1R Antagonism, rat [10 μM] % Inhibition [1]: 92.36%
- B1R Antagonism, human [10 μM] % Inhibition [2]: 59.22%
SMILES: COc1cc(C)c(S(=O)(=O)N2CCCCC2COCC(=O)NCC(c2ccc(C(F)(F)F)cc2)N2CCOCC2)c(C)c1 (stereo not drawn) [Example 249, 2-((1-(4-methoxy-2,6-dimethylphenylsulfonyl)piperidin-2-yl)methoxy)-N-(2-morpholin-2-(4-(trifluoromethyl)phenyl)ethyl)acetamide]

- inhibition at 10 µM [1]: 97.9%
- inhibition at 10 µM [2]: 104%
SMILES: O=C(COCC1CCCN1S(=O)(=O)c1c(Cl)cccc1Cl)N1CCC(CCN2CCCCC2)CC1 (stereo not drawn) [Example 286, 2-((1-(2,6-dichlorophenylsulfonyl)pyrrolidin-2-yl)methoxy)-1-(4-(2-(piperidin-1-yl)ethyl)piperidin-1-yl)ethanone]

- inhibition at 10 µM [1]: 101%
- inhibition at 10 µM [2]: 73.5%
SMILES: COc1cc(C)c(S(=O)(=O)N2CCCCC2COCC(=O)N2CCN(c3ncccc3C#N)CC2)c(C)c1 (stereo not drawn) [Example 513, 2-(4-(2-((1-(4-methoxy-2,6-dimethylphenylsulfonyl)piperidin-2-yl)methoxy)acetyl)piperazin-1-yl)nicotinonitrile]

- inhibition at 10 µM [1]: 89.6%
- inhibition at 10 µM [2]: 38%
SMILES: COc1ccc(S(=O)(=O)N2CCCCC2CCOCC(=O)N2CCN(CCN3CCCCC3)CC2)cc1 (stereo not drawn) [Example 221, 2-(2-(1-(4-methoxyphenylsulfonyl)piperidin-2-yl)ethoxy)-1-(4-(2-(piperidin-1-yl)ethyl)piperazin-1-yl)ethanone]

- inhibition at 10 µM [1]: 89.7%
- inhibition at 10 µM [2]: 65.1%
SMILES: COc1cc(C)c(S(=O)(=O)N2CCCC2COCC(=O)Nc2ccc3cnn(C)c3c2)c(C)c1 (stereo not drawn) [Example 501, 2-((1-(4-methoxy-2,6-dimethylphenylsulfonyl)pyrrolidin-2-yl)methoxy)-N-(1-methyl-1H-indazol-6-yl)acetamide]

- inhibition at 10 µM [1]: 101%
- inhibition at 10 µM [2]: 96.6%
SMILES: COc1cc(C)c(S(=O)(=O)N2CCCC2COCC(=O)N2CCN(Cc3ccccc3)CC2)c(C)c1 (stereo not drawn) [Example 460, 1-(4-benzylpiperazin-1-yl)-2-((1-(4-methoxy-2,6-dimethylphenylsulfonyl)pyrrolidin-2-yl)methoxy)ethanone]

- inhibition at 10 µM [1]: 101%
- inhibition at 10 µM [2]: 82.3%
SMILES: COc1cc(C)c(S(=O)(=O)N2CCCCC2COCC(=O)N2CCN(c3ccccn3)CC2)c(C)c1 (stereo not drawn) [Example 369, 2-((1-(4-methoxy-2,6-dimethylphenylsulfonyl)piperidin-2-yl)methoxy)-1-(4-(pyridin-2-yl)piperazin-1-yl)ethanone]

- B1R Antagonism, rat [10 μM] % Inhibition [1]: 87.56%
- B1R Antagonism, human [10 μM] % Inhibition [2]: 29.73%
SMILES: COc1ccc(S(=O)(=O)N2CCCCC2COCC(=O)Nc2ccc(NC(=O)CN3CCCCC3)c(C)c2)cc1 (stereo not drawn) [Example 557, 2-((1-(4-methoxyphenylsulfonyl)piperidin-2-yl)methoxy)-N-(3-methyl-4-(2-(piperidin-1-yl)acetamideo)phenyl)acetamide]

- inhibition at 10 µM [1]: 40.8%
- inhibition at 10 µM [2]: 43.7%
SMILES: CN(C)CCCN1CCN(C(=O)COCC2CCCCN2S(=O)(=O)c2ccc(Cl)c(Cl)c2)CC1 (stereo not drawn) [Example 85, 2-[1-(3,4-dichloro-phenylsulfonyl)-piperidin-2-ylmethoxy]-1-[4-(3-dimethylamino-propyl)-piperazin-1-yl]-ethanone]

- inhibition at 10 µM [1]: 99.7%
- inhibition at 10 µM [2]: 81.8%
SMILES: COc1cc(C)c(S(=O)(=O)N2CCCCC2COCC(=O)NC(CN2CCCC2)c2ccccc2)c(C)c1 (stereo not drawn) [Example 262, 2-((1-(4-methoxy-2,6-dimethylphenylsulfonyl)piperidin-2-yl)methoxy)-N-(1-phenyl-2-(pyrrolidin-1-yl)ethyl)acetamide]

- inhibition at 10 µM [1]: 104%
- inhibition at 10 µM [2]: 7.44%
SMILES: COc1cc(C)c(S(=O)(=O)N2CCCCC2COCC(=O)Nc2ccc3ccccc3n2)c(C)c1 (stereo not drawn) [Example 546, 2-((1-(4-methoxy-2,6-dimethylphenylsulfonyl)piperidin-2-yl)methoxy)-N-(quinolin-2-yl)acetamide]

- inhibition at 10 µM [1]: 99.2%
- inhibition at 10 µM [2]: 104%
SMILES: COc1cccc(N2CCN(C(=O)COCC3CCCN3S(=O)(=O)c3c(C)cc(OC)cc3C)CC2)c1 (stereo not drawn) [Example 306, 2-((1-(4-methoxy-2,6-dimethylphenylsulfonyl)pyrrolidin-2-yl)methoxy)-1-(4-(3-methoxyphenyl)piperazin-1-yl)ethanone]

From patent publication US8435978B2, “Substituted sulfonamide compounds” (Gruenenthal GmbH, priority 2006, dated 2013)
